We go through one substance from patent publication US20100267928A1, “ACTIVATABLE DIAGNOSTIC AND THERAPEUTIC COMPOUND” (priority 2007, published 2010).

Primed or numbered codes have the meaning given here. Where no end group is shown, it is not given here. The star is where a group is joined. DOTA = O=C(O)CN1CCN(CC(=O)O)CCN(CC(=O)*)CCN(CC(=O)O)CC1; FITC′ = fluorescent dye, fluorescein isothiocyanate

In test [1] the test system is LN18 and U373 glioma cells. To be noted: 130 μM; APMA-containing medium without inhibitor. Here is the method: Human malignant glioma cells (U373 and LN18) were seated into 25 cm^2 culture flasks which contained 3 ml RPMI medium. This was left as it is for one day so that enough matrix metalloprotenases (MMP-2) could accumulate.
In a second test the same compounds were again dissolved in the media of 12 flasks (130 μM), however now with MMP-2 inhibitor I (Calbiochem).
As a control four small flasks were used wherein both cell lines were incubated in a one day old medium with and also without APMA.
For the confocal laser scanning microscopy an inverted LSM510 laser scanning microscope (Karl Zeiss, Jena, Deutschland) (Objectives: LD Achroplan 40×0.6, Plan Neofluar 20×0.50, 40×0.75) was used [fluorescence excitation at 488 nm (argon-ion laser) and […] (helium-neon laser)]. Superimposed images of FITC- and alexa-stained cells were produced. All measurements were performed on living, non-fixed cells for three times.

Test [2] concerns intra-cerebral LN18 brain tumors. The test can be described thus: In vivo magnetic resonance tomography of nude mice with implanted glioma. As to the method:
Female nude mice CD1(Nu/Nu) were obtained from Charles River (Sulzfeld, Germany) (weight: 25 g; age: 7 weeks). Human LN18 glioma cells were grown and implanted into the brain as described by Friese et al. (2003), MICA/NKG2D-mediated Immunogene Therapy of Experimental Gliomas, Cancer Res. 63(24): 8996-9006. The tests were performed 3 weeks after the implantation.
3.6 mg of the compound 4A were dissolved in 1 ml isotonic saline solution and intraperitoneally injected into 2 mice. Further, 3.6 mg of compound 4A were dissolved in 1 ml isotonic saline solution together with 0.5 mg MMP-2 inhibitor I, and in intraperitoneally injected into 2 mice. A mouse was used as control which were injected with 1 ml pure saline solution. Narcosis was performed with ketamine (100 mg/kg) and xylazine (10 mg/kg) intraperitoneally.
MRT was performed with a 3 Tesla full body apparatus (Trio. Siemens).
The mice were placed face down in a wrist array coil.
The MRT protocol consisted of the following sequences:
Tse 3D sequence: slice thickness 0.3125 mm, field of view read 63 mm, field of view phase 100.0%, base resolution 256, phase resolution 100%, slice resolution 100%, voxel seize 0.2×0.2×0.3 mm, slab group 1, slabs 1, slices per slab 16, TR 300 ms, TE 15 ms, flip angle 70, distance factor 50, scan time 12:02 min.
T1 weighted transverse images: slice thickness 2 mm, field of view read 31 mm, field of view phase 82.3%, voxel seize 0.2×0.2×2 mm, TR 600 ms, TE 18 ms, flip angle 180, number of slices 12, distance factor 0, scan time 11:35 min.

The subject of another test is LN18 glioma cells. The test can be described thus: FACS analysis of fluorescence-stained cells. To be noted: depending on the concentration; FIG. 5. It is filed as cell-based, human. Here is the method:
(§1) The FACS analysis was performed on a Becton-Dickinson FACSCalibur. [[…] of the cell suspension (1×10^6 cells+[…] FACS buffer (DPBS buffer with 1% paraformaldehyde)]. Approximately 25.000 to 35.000 cells were measured per sample [fluorescence excitation: argon-ion laser (480 nm), fluorescence detection: 540 to 565 nm band-path filter]. The tests were repeated two times.
On the technique in general: In flow cytometry, cells or beads pass a laser one at a time.

For test [3], the system named is LN18 and U373 glioma cells. The test can be described thus: Confocal laser scanning microscopy (CLSM) and FACS, staining of cell nuclei. It is filed as cell-based, human. The settings on record: 130 μM, APMA-containing medium, MMP-2 inactive/inhibited. Here is the method:
as §1

The next test has as its target T1, MMP-2 (Homo sapiens, UniProt P08253).
T1 construct: purchased Calbiochem
T1 sequence (P08253 110-660): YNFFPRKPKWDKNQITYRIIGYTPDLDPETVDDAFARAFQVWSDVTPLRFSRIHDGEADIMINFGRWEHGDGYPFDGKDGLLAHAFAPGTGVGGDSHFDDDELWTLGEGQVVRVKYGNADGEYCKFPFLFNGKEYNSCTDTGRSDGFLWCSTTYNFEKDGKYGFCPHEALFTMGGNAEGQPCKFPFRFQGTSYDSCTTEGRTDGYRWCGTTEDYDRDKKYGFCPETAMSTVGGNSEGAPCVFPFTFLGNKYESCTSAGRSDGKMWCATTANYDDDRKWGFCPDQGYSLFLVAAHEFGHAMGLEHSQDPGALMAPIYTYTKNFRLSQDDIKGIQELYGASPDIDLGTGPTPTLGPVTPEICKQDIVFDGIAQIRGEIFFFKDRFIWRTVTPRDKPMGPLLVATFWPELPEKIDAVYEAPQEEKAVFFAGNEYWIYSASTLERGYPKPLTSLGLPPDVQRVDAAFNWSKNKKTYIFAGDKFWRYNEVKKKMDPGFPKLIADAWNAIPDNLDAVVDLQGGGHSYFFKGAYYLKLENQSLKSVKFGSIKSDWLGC
The test can be described thus: Cleavage test with MMP-2, cleavage products examined by HPLC. It is filed as biochemical. Here is the method: The incubation in HEPES buffer with active MMP-2 was made for 2 hours.
[…]. For this 1% APMA stock solution (100 mM in DMSO) was added to the solution containing the MMP-2 proenzyme and the compounds (final APMA concentration: 1 mM, with 1% DMSO).
In the following also an incubation of 2 hours was performed. In addition the tests were made with the MMP-2 inhibitor I (Calbiochem). All six compounds were, as a control, also incubated into HEPES buffer without MMP-2 for two hours.

Test [4] relates to U373 and LN18 glioma cells. The test can be described thus: Magnetic resonance relaxometry on glioma cell centrifugates. It is filed as cell-based, human. Here is the method:
Human U373 and LN18 glioma cells were grown in 25 cm^2 culture flasks (70% confluence). Accutase™ (PAA laboratories, Pasching, Austria) was added to strip off the cells from the bottom of the culture flasks.
In a first try the cells were collected and subsequently distributed on 16 Eppendorf-vials (6×10^6 cells per vial). The cells in the first four vials were used as a control (only RPMI medium with and also without APMA, two cell lines). […] In the following it was washed for three times with PBS and centrifuged with 800 rpm (rounds per minute) for 5 minutes.
In another test adherent U373 and LN18 glioma cells were incubated with the compounds 2A, 4A and […], and were stripped off in the following and collected in Eppendorf vials for the MRT. The MRT analysis of the Eppendorf vials with the cell centrifugates were performed in a 3 Tesla full body MRT apparatus (Trio, Siemens Magnetom Sonata, circular polarised knee coil).
The following spin echo sequence was used to obtain sagittal T1-weighted MRT images.
[…] TE (echo time): 7.4 ms, flip angle 90°, averages: 1, concatenations: 2, measurements: 2, number of slices: 19, distance factor: 30%, slice thickness: 3 mm, field of view read: 180 mm, field of view phase: 100%, base resolution: 256, phase resolution: 100%, voxel size: 0.7×0.7×3.0 mm, scan time: 1:48 min.
By means of multiple spin echo measurements (TR: 20-8000 ms, 50 different TR values) different signal intensities were measured through which the T1 relaxation time could be determined.
TR: 20-8000 ms (50 different TR values), TE: 6.4 ms, flip angle 90°, averages: 1, measurements; 1, number of slices: 1, slice thickness: 1 mm, field of view read: 120 mm, field of view phase: 87.5, base resolution 128, phase resolution; 100% voxel size: 0.9×0.9×1 mm.
For the analysis and calculations a Matlab programme (Math Works, Natick, Mass., USA) was used. The T1 values were determined via a two-parameter fit. All signal curves were examined and rated as being mono-exponential. All tests were performed three times.

With “K-(GdDOTA)-G-PLGLA-GG-PKKKRKVRRRR-K(FITC)-GG-K(GdDOTA) (K(DOTA)GPLGLAGGPKKKRKVRRRRK(FITC′)GGK(DOTA)-NH2; also: DOTA groups complexed with Gd (GdDOTA)) [V4A]”, in test [1], the “apoptosis (binding of Alexa annexin to phosphatidyl serine; morphologic alterations), MMP-2 active” value is listed as “apoptotic”. Besides, in test [2] (30 minutes after intraperitoneal administration, FIG. 8), the “intensity of the signal in the tumor in comparison to the native image” value was “considerably decreases”. Also, in test [2] (intraperitoneal administration, nude mice with intra-cerebral LN18 brain tumors), the “signal intensity in the brain tumors in MR tomography” value was “distinct increase of the signal intensity”. Besides, the “signal intensity in the brain tumors, administered in the presence of an MMP-2 inhibitor” value in test [2] (intraperitoneal, with MMP-2 inhibitor, remained only for a short time) is given as “very minor increase of the signal intensity”. Also, the “signal intensity in the brain tumors one day after the administration” value in test [2] (intraperitoneal, one day after administration) is reported as “attenuated form”. Besides, the “fluorescence after cleavage by MMP-2 in comparison to the components 2 and 2A” value in the test on LN18 glioma cells is given as “stronger fluorescence”. Further, the “staining of the cell nuclei, MMP-2 inactive” value in test [3] was “few stained cell nuclei”. Also, in the test with MMP-2 (already active MMP-2 or proform of MMP-2 activated by APMA, 2 hours in HEPES buffer), the “cleavage of the compound by MMP-2 (HPLC)” value is “cleaved”. The “cleavage of the compound by MMP-2 in presence of the inhibitor (HPLC)” value with MMP-2 (with MMP-2 inhibitor I) is listed as “prevented”. The “shortening of the T1 time in comparison to the native control, inhibitor-containing medium” value in test [4] (26 and 130 μM, with MMP-2 inhibitor) is on record as “minor shortening of the T1 time”. For the same substance, the “signal intensity at TR: 400 ms, active MMP-2 versus inactive MMP-2” value in test [4] (LN18 glioma cell centrifugates, 26 and 130 μm, washed and centrifuged three times) was “considerably higher signal intensity”. Also, in test [4] (depending on the concentration), the “shortening of the T1 time in comparison to component 2A, inhibitor-free medium” value is “stronger shortening of the T1 time”. Also, the “shortening of the T1 time, inhibitor-free medium” value in test [4] (without MMP-2 inhibitor) is reported as “more distinct shortening of the T1 time”.
